According to patent US4220795A, “Cyclobutyl substituted derivatives of prostaglandin analogs” (Miles Laboratories, Inc., priority 1978, dated 1980):

Assays:
blood pressure = test: Effects on Blood Pressure and Heart Rate in the Anesthetized Cat (Test D); assay type: in vivo; details: Felis catus, iv, i.v. 0.01 to 10.0 mcg/kg, scored on hypotension, read-out: Activity value, Test D: Normal Feline Blood Pressure and Heart Rate (ED50 mmHg)
Method: D. Evaluation of the Effects of Prostaglandin Analogs III on Blood Pressure and Heart Rate in the Anesthetized Cat
The acute effects of test compounds on blood pressure and heart rate were determined in cats of either sex anesthetized with a mixture of pentobarbital sodium (35 mg/kg, i.v.) and barbital sodium (100 mg/kg, i.v.). Cannulas were placed in the trachea to allow adequate spontaneous ventilation, in a femoral artery for blood pressure recording with a strain gage transducer, and in a saphenous vein for drug administration. Heart rate was recorded by means of a cardiotachometer driven by the R wave of the electrocardiogram. After a period of 10 min of stable recordings of blood pressure and heart rate, the test compound was administered intravenously at doses increasing from 0.01 to 10.0 mcg/kg, spaced one log and injected at 10 min intervals. All doses were injected in a volume of 0.1 ml/kg. Modifications of blood pressure and heart rate induced by the test compound were expressed both in absolute units (mmHg and beats/min) and as percent of values recorded immediately before administration of each dose. Biphasic responses were tabulated in the order in which they occur. The direction of the observed changes was also noted (+ for increase and - for decrease).
Activity of compounds in this test was judged only on the basis of the degree of hypotension observed. Thus, the ED50 mmHg (dose decreasing blood pressure by 50 mmHg) was calculated graphically and the compound scored according to the following scale: […]

femoral blood flow = test: Effects on Femoral Blood Flow in the Dog (Test C); assay type: in vivo, dog (mongrel); details: anesthetized dog, intraarterial 0.001 to 10 mcg
Method: C. Evaluation of the Effects of Prostaglandin Analogs III on the Femoral Blood Flow in the Dog
The peripheral vasodilator or constrictor effects of test compounds were determined in mongrel dogs of either sex, weighing between 10 and 20 kg anesthestized intravenously with 35 mg/kg of sodium pentobarbital. An external iliac artery was dissected immediately above the femoral arch for a length of approximately 5 cm and a previously calibrated, non-connulating electromagnetic flowmeter sensor with a lumen between 2.5 and 3.5 mm was placed snugly around the vessel. Cannulas were placed in a branch of the artery arising distally to the location of the flowmeter sensor for intraarterial drug administrations, in the contralateral femoral artery for systemic blood pressure recordings and in the trachea for artificial respiration with room air. Femoral blood flow and systemic blood pressure were continuously recorded with an electromagnetic flowmeter and pressure transducer, respectively.
After an adequate control period, test compounds were injected intraarterially at one log-spaced doses ranging from 0.001 to 10 mcg., in a volume of 0.5 ml and at 5 to 10 min intervals. Maximum changes in bloodflow, as well as any variations in blood pressure, were tabulated for each dose in absolute values (ml/min and mmHg). The calculations were made taking as control values those existing immediately before administration of each dose. The direction of the observed change (+ for increase and - for decrease) was also noted. The dose changing bloodflow by 100 ml/min (ED100 ml/min) was calculated graphically and was used for scoring activity as follows: […]

rat uterus = test: Effects on the Rat Uterus (Test F); details: for EC50: read-out: Activity value, Test F: Effects on Rat Uterus (ED50, response of 50% that of carbachol)
Method: F. Evaluation of the Effects of Prostaglandin Analogs III on the Rat Uterus
The uterine stimulant effect of test compounds is determined in segments of uterus obtained from rats (140-160 g) pretreated subcutaneously with 1 mg/kg of diethylstibesterol 18 hr before the experiment. The tissues are placed in 10 ml chambers filled with de-Jalon solution at 29° C. and bubbled with 95% O2 and 5% CO2, and prepared for isometric recording with force displacement transducers. Preparations are stretched to an initial tension of 1 g and are left undisturbed for 30 min, after which two responses to 1 mcg/ml of carbachol added to the bath at a 10 min interval, are obtained (the value of the second response is recorded). Responses to increasing concentrations of the test compound (0.001 to 10.0 mcg/ml with one log intervals) are then recorded every 10 min. Preparations are washed four times after each response. All doses of drugs are administered in a 0.1 ml volume. Since it has been observed that the magnitude of the second response to carbachol, which is approximately 10% greater than the first, is close to the maximal response of the tissue, such value is taken as a measure of the sensititity of the particular segment. Responses to each concentration of the test compound are expressed in terms of percentage of the second response to carbachol and the ED50 (dose producing a response of 50% that of carbachol) is calculated graphically. Activity is scored according to the following scale: […]

[1] = tested on: blood pressure (hypertensive rat); test: Effects on Blood Pressure in the Hypertensive Rat (Test E); assay type: in vivo; set-up: key: 0: Not significant at any time interval; 1: Significant at one time interval; 2: Significant at two time intervals; 3: Significant at three time intervals; 4: Significant at all four intervals; details: 1 mg/kg intraperitoneal, 2, 4, 6 and 8 hr
Method: E. Evaluation of the Effects of Prostaglandin Analogs III on Blood Pressure in the Hypertensive Rat
The acute antihypertensive activity of test compounds is determined in rats made hypertensive by the procedure of Grollman (A. Proc. Soc. Exper. Biol. Med., 57:102, [1944]). Female rats weighing between 60 and 100 g are anesthetized with ether, the right kidney approached through a flank retroperitoneal incision, decapsulated and tied with a figure-of-eight ligature. The animals are left to recover and two weeks later are again anesthetized and the contralateral kidney removed. Four weeks after the second operation the rats are subjected to indirect blood pressure measurements and those showing systolic pressure values greater than 160 mmHg are selected for drug testing.
Blood pressure is measured in the tail with an inflatable occluding cuff placed at the base of the extremity and a pulse detector located distally. The cuff is inflated to approximately 300 mmHg and is slowly deflated until pulsations appear, indicating the level of systolic pressure; diastolic pressure is not recorded by this procedure. All measurements are carried out in unanesthetized, unsedated animals maintained in a warm environment during the recording procedure and for at least 6 hr before. In all cases, three pressure readings are obtained in succession and mean values are calculated thereof.
Experiments are carried out in groups of five hypertensive rats in which systolic pressure is determined immediately before and 2, 4, 6 and 8 hr after the intraperitoneal administration of the test compound at a dose of 1 mg/kg. Drugs are diluted from stock solutions with phosphate buffer (Lee et al., Prostaglandins 3:29 [1973]), so as to inject this quantity in a volume of 1 ml/kg. Changes from control blood pressure values are calculated for each interval both in mmHg and in per-cent, and evaluated for significance by means of Wilcoxon's signed rank test (Wilcoxon and Wilcox, Some rapid approximate statistical procedures, Lederle Laboratories, Pearl River [1964]).

[2] = rat uterus segments, 0.001 to 10.0 mcg/ml, 29° C.

SMILES	ED (50 mmHg) (blood pressure)	EC50 (rat uterus; [2])	also measured
CCC1CC([C@@H](O)/C=C/[C@H]2[C@H](O)CC(=O)[C@@H]2CCCCCCO)C1 (relative stereo) [TR-4675, (±)16,18-Methano-1-nor-2,11α,15R-trihydroxyprost-13E-en-9-one]	> 0.0101 mg/kg	> 10 µg/mL	Activity value, Test C: Increase in Canidae Femoral Blood Flow (ED100 ml/min) (femoral blood flow): 0 (>10.0)
CCC1CC([C@H](O)/C=C/[C@H]2[C@H](O)CC(=O)[C@@H]2CCCCCCO)C1 (relative stereo) [TR-4676, (±)16,18-Methano-1-nor-2,11α,15S-trihydroxyprost-13E-en-9-one]	> 0.0101 mg/kg	> 10 µg/mL	Activity value, Test E: Effects on Blood Pressure in Hypertensive Rat (blood pressure decrease) [1]: 0; Activity value, Test C: Increase in Canidae Femoral Blood Flow (ED100 ml/min) (femoral blood flow): 0 (>10.0)
CCC1CC(C(O)/C=C/[C@H]2C=CC(=O)[C@@H]2CCCCCCC(=O)OC)C1 (some centres unmarked) [TR-4280, Methyl 15RS-hydroxy-16,18-methano-9-oxoprosta-10,13E-dien-1-oate]	–	> 10 µg/mL	–
CCC1CC([C@H](O)/C=C/[C@H]2C=CC(=O)[C@@H]2CCCCCCCOC(C)=O)C1 (stereo partly drawn) [TR-4565, 1-Acetoxy-15S-hydroxy-16,18-methanoprosta-10,13E-dien-9-one]	> 0.0101 mg/kg	> 10 µg/mL	Activity value, Test C: Increase in Canidae Femoral Blood Flow (ED100 ml/min) (femoral blood flow): 1 (1.0.-10.0)
CCC1CC([C@H](O)/C=C/C2C(O)CC(O)C2CCCCCCCO)C1 (stereo partly drawn) [TR-4626, 16,18-Methanoprost-13E-en-1,9α,11α,15S-tetraol]	–	–	Activity value, Test F: Effects on Rat Uterus (ED50, response of 50% that of carbachol) (rat uterus; [2]): 0 (>10)
CC1([C@@H](O)/C=C/[C@H]2[C@H](O)CC(=O)[C@@H]2CCCCCCCO)CCC1 [TR-4674, 16,19-Cyclo-16-methyl-20-nor-1,11α,15S-trihydroxyprost-13E-en-9-one]	> 0.0101 mg/kg	> 10 µg/mL	Activity value, Test E: Effects on Blood Pressure in Hypertensive Rat (blood pressure decrease) [1]: 0
CCC1CC(C)([C@H](O)/C=C/[C@H]2[C@H](O)CC(=O)[C@@H]2CCCCCCC(=O)OC)C1 (stereo partly drawn) [TR-4681, Methyl 11α,15R-dihydroxy-16,18-methano-16-methyl-9-oxoprost-13E-en-1-oate]	0.00101 to 0.01 mg/kg	> 10 µg/mL	Activity value, Test C: Increase in Canidae Femoral Blood Flow (ED100 ml/min) (femoral blood flow): 2 (0.11-1.0)
COC(=O)CCCCCC[C@H]1C(=O)C=C[C@@H]1/C=C/[C@@H](O)C1(C)CCC1 [TR-4683, Methyl 16,19-cyclo-15R-hydroxy-16-methyl-20-nor-9-oxoprosta-10,13E-dien-1-oate]	–	> 10 µg/mL	–
CCC1CC(C)([C@@H](O)/C=C/[C@H]2[C@H](O)CC(=O)[C@@H]2CCCCCCCO)C1 (stereo partly drawn) [TR-4689, 16,18-Methano-16-methyl-1,11α,15S-trihydroxyprost-13E-en-9-one]	> 0.0101 mg/kg	> 10 µg/mL	Activity value, Test C: Increase in Canidae Femoral Blood Flow (ED100 ml/min) (femoral blood flow): 0 (>10.0)
CCCCC1([C@H](O)/C=C/[C@H]2[C@H](O)CC(=O)[C@@H]2CCCCCCC(=O)OC)CCC1 [TR-4692, Methyl 11α,15R-dihydroxy-9-oxo-16,16-propanoprost-13E-en-1-oate]	0.00101 to 0.01 mg/kg	> 10 µg/mL	Activity value, Test E: Effects on Blood Pressure in Hypertensive Rat (blood pressure decrease) [1]: 0
CCC1CC(C)(C(O)/C=C/[C@H]2C=CC(=O)[C@@H]2CCCCCCC(=O)OC)C1 (stereo partly drawn) [TR-4694, Methyl 15R-hydroxy-16,18-methano-16-methyl-9-oxoprosta-10,13E-dien-1-oate]	–	> 10 µg/mL	–
COC(=O)CCCCCC[C@H]1C(=O)C[C@@H](O)[C@@H]1/C=C/[C@H](O)C1CC(CC2CCC2)C1 (stereo partly drawn) [TR-4796, Methyl 11α,15R-dihydroxy-16,18-methano-20,20-propano-9-oxoprost-13E-en-1-oate]	–	> 10 µg/mL	–
COC(=O)CCCCCC[C@H]1C(=O)C[C@@H](O)[C@@H]1/C=C/[C@@H](O)C1CC(CC2CCC2)C1 (stereo partly drawn) [TR-4797, Methyl 11α,15S-dihydroxy-16,19-methano-20,20-propano-9-oxoprost-13E-en-1-oate]	–	> 10 µg/mL	–
O=C1C[C@@H](O)[C@H](/C=C/[C@H](O)C2CC(CC3CCC3)C2)[C@H]1CCCCCCCO (stereo partly drawn) [TR-4832, 1,11α,15R-Trihydroxy-16,18-methano-20,20-propanoprost-13E-en-9-one]	–	> 10 µg/mL	–
O=C1C[C@@H](O)[C@H](/C=C/[C@@H](O)C2CC(CC3CCC3)C2)[C@H]1CCCCCCCO (stereo partly drawn) [TR-4833, 1,11α,15S-Trihydroxy-16,18-methano-20,20-propanoprost-13E-en-9-one]	–	> 10 µg/mL	–
O=C1C[C@@H](O)[C@H](/C=C/[C@@H](O)C2CC(C3CCC3)C2)[C@H]1CCCCCCCO (stereo partly drawn) [TR-4880, 1,11α,15S-Trihydroxy-16,18-methano-19,20-ethanoprost-13E-en-9-one]	–	> 10 µg/mL	–
O=C1C[C@@H](O)[C@H](/C=C/[C@H](O)C2CC(C3CCC3)C2)[C@H]1CCCCCCCO (stereo partly drawn) [TR-4881, 1,11α,15R-Trihydroxy-16,18-methano-19,20-ethanoprost-13E-en-9-one]	–	> 10 µg/mL	–
COC(=O)CCCCCC[C@H]1C(=O)C[C@@H](O)[C@@H]1/C=C/[C@H](O)C1CC(C2CCC2)C1 (stereo partly drawn) [TR-4882, Methyl 11α,15R-dihydroxy-16,18-methano-19,20-ethano-9-oxoprost-13E-en-1-oate]	–	> 10 µg/mL	–
COC(=O)CCCCCC[C@H]1C(=O)C[C@@H](O)[C@@H]1/C=C/[C@@H](O)C1CC(C2CCC2)C1 (stereo partly drawn) [TR-4887, Methyl 11α,15S-dihydroxy-16,18-methano-19,20-ethano-9-oxoprost-13E-en-1-oate]	–	> 10 µg/mL	–
C[N+](C)(C)CCOC(N)=O [carbachol, reference compound]	–	–	magnitude of the second response greater than the first (rat uterus; carbachol 1 mcg/ml, rat uterus, 10 min interval): approximately 10%
